Results reported in article PMC4436076 (mBio, 2015).
Converted amounts (≈) assume the structure as drawn. Peptide text beside a SMILES is read from it. * marks the point of attachment. Cbz = O=C(OCc1ccccc1)*

Legend:
Format in all cases: cell-based
M. smegmatis [1] = assay: microbe, parasite or virus in culture
Mycobacterium bovis BCG = assay: microbe, parasite or virus in culture
M. tuberculosis H37Rv = assay: microbe, parasite or virus in culture; details: Mycobacterium tuberculosis, 120 h
M. smegmatis [2] = system: M. smegmatis
WT M. smegmatis = details: subinhibitory, 24 h, OD600
[3] = system: caseinolytic protease substrate WhiB1 (M. smegmatis pTet-GFP-WhiB1)

Structure (SMILES): CC(C)C[C@H](NC(=O)[C@@H](NC(=O)c1cccc(-c2ccccc2)n1)[C@@H](C)O)B(O)O [CEP-18770]
- Growth inhibition of WT M. smegmatis, in words (M. smegmatis [1]): same potent growth inhibition as BZ
- Growth inhibition of WT M. bovis, in words (Mycobacterium bovis BCG): strongest growth inhibition

Structure (SMILES): CC(C)C[C@@H](C=O)NC(=O)[C@H](CC(C)C)NC(=O)[C@H](CC(C)C)NC(=O)OCc1ccccc1 [MG-132] (Cbz-Leu-Leu-Leu-aldehyde)
- Growth inhibition of WT M. smegmatis, in words (M. smegmatis [1]): completely abrogated
- Growth inhibition of WT M. bovis, in words (Mycobacterium bovis BCG): no response

Structure (SMILES): CC(C)C[C@H](NC(=O)CNC(=O)c1cc(Cl)ccc1Cl)B(O)O [MNL-2238]
- Growth inhibition of WT M. smegmatis, in words (M. smegmatis [1]): weaker growth inhibition

Structure (SMILES): CC(C)C[C@H](NC(=O)CNC(=O)c1cc(Cl)ccc1Cl)B1OC(=O)C(CC(=O)O)(CC(=O)O)O1 [MNL-9708]
- Growth inhibition of WT M. smegmatis, in words (M. smegmatis [1]): active

Structure (SMILES): CC(C)C[C@H](NC(=O)[C@H](Cc1ccccc1)NC(=O)c1cnccn1)B(O)O [compound 100, bortezomib]
- Growth inhibition of WT M. smegmatis, in words (M. smegmatis [1]): showed an effect
- MIC50 (M. smegmatis [1]; Mycolicibacterium smegmatis, 24 h): 4 µM (≈ 1.54 µg/mL)
- Growth inhibition of WT M. bovis, in words (Mycobacterium bovis BCG): strongest growth inhibition
- MIC50 (Mycobacterium bovis BCG; Mycobacterium tuberculosis variant bovis BCG, BCG, 120 h): 0.3 µM (≈ 0.115 µg/mL)
- MIC50 (M. tuberculosis H37Rv): 0.8 µM (≈ 0.307 µg/mL)
- MBC90 (minimum bactericidal concentration that kills 90% of an initial inoculum) (M. smegmatis [2]): 30 µM
- Growth inhibition in combination with amikacin (WT M. smegmatis; BZ 1.5 µM + amikacin 0.4 µM): complete growth inhibition
- Potentiation of chloramphenicol (WT M. smegmatis; BZ 1.5 µM + chloramphenicol 4.5 µM): no potentiation effect
- Growth inhibition in combination with streptomycin (WT M. smegmatis; BZ 1.5 µM + streptomycin 0.05 µM): complete growth inhibition
- GFP-WhiB1 fluorescence [3]: increased fluorescence in a dose-dependent manner
